CN1CCN(c2cccc3c2CC(C(=O)Nc2ccc(N4CCOCC4)cc2)C3)CC1 (stereo not shown) [Example 4, 4-(4-Methylpiperazin-1-yl)-N-(4-morpholinophenyl)indan-2-carboxamide]
melting point: 248 to 249 °C
